We go through twelve molecules from article PMC8273886 (Journal of Medicinal Chemistry, 2021).

Where “and” joins values, the source holds several entries; their conditions need not be identical. Equal values may be shown once. Entries after “also recorded” stand apart in the source; their conditions may differ. Bridge positions count the residues as written; N and C are the ends. Square brackets hold non-standard residues; d marks the D form. Peptide text beside a SMILES is read from it.

Data set [1] in a line: Peptide stability in simulated gastric fluid. The format is in vitro ADME. The following applies: SGF pH 1.2 with pepsin, 37 °C.
In data set [2] the target is T1, mouse KOR (Mus musculus, UniProt P33534). Briefly: Functional cAMP assay. The format is cell-based. The following applies: for KOR activation in cAMP assay (in words): HEK293 cells stably expressing mouse KOR; for Emax: normalized to dyn A 1–13 = 100%, read-out: efficacy cAMP Emax ± SD. In general terms: cAMP levels reflect the balance of adenylyl cyclase and phosphodiesterase activity.

Data set [3] concerns the target T1, mouse KOR. As to the kind of experiment: Radioligand competition binding assay ([3H]-diprenorphine displacement). To be noted: 1 nM [3H]-diprenorphine, HEK293 cell membranes stably expressing mouse KOR; read-out: affinity Ki ± SD. Background: In a radioligand displacement assay an active substance lowers the binding of a labelled ligand.
The target of data set [4] is T2, mouse KOR-EGFP and β-arrestin-2-nano-luciferase (Mus musculus, UniProt P33534).
T2 construct: expressed in transfected cells; host or cells: HEK293 (transient, jetPRIME)
Briefly: BRET β-arrestin-2 recruitment assay. To be noted: normalized to maximum recruitment of dyn A 1–13. The format is cell-based. A general note: In BRET a luciferase serves as donor, and the signal depends on an acceptor being close.

The test system of data set [5] is motor coordination in mice. The following applies: mouse, in vivo, ip, 5 mg/kg.
Data set [6] concerns colonic nociceptors from CVH mice. As to the kind of experiment: Ex vivo assessment of colonic nociceptor mechanosensitivity. Set-up: species or system mouse. On the procedure: Single-unit extracellular recordings from splanchnic colonic afferent nerves were performed as previously described.[42],[43],[45],[46],[78] […] The tissue was transferred to ice-cold Krebs solution, and after further dissection, the distal colon was opened longitudinally and pinned flat with its mucosal side up in a specialized, SYLGARD 184-lined (Dow Corning Corp., Midland, MI) organ bath consisting of two adjacent, clear acrylic compartments (Danz Instrument Service, Adelaide, South Australia, Australia). The neurovascular bundle containing the splanchnic nerve was extended from the tissue compartment and laid onto a mirror in the recording compartment. A movable wall with a small “mouse hole” was lowered into position to allow passage of the nerves, and the recording chamber was filled with paraffin oil. The colonic compartment was superfused with a modified Krebs solution (117.9 mM NaCl, 4.7 mM KCl, 25 mM NaHCO3, 1.3 mM NaH2PO4, 1.2 mM MgSO4(H2O)7, 2.5 mM CaCl2, and 11.1 mM D-glucose) and gassed with carbogen (95% O2 and 5% CO2) at a temperature of 34 °C. Smooth muscle activity and endogenous prostaglandins were suppressed by the addition of the L-type calcium channel antagonist nifedipine (1 μM) and prostaglandin synthesis inhibitor indomethacin (3 μM), respectively. […]

`CC[C@H](C)[C@H](NC(=O)[C@H](CCCN=C(N)N)NC(=O)[C@H](CCCN=C(N)N)NC(=O)[C@H](CC(C)C)NC(=O)[C@H](Cc1ccccc1)NC(=O)CNC(=O)CNC(=O)[C@@H](N)Cc1ccc(O)cc1)C(=O)N[C@@H](CCCN=C(N)N)C(=O)N1CCC[C@H]1C(=O)N[C@@H](CCCCN)C(=O)N[C@@H](CC(C)C)C(=O)N[C@@H](CCCCN)C(N)=O` [dyn A 1–13]: the “degradation in simulated gastric fluid (in words)” value in data set [1] was “fully degraded after 15 min”.

In general, Emax refers to the size of the effect at its maximum, as opposed to the concentration needed. On to `CC[C@H](C)[C@@H]1NC(=O)[C@H](CCCNC(=N)N)NC(=O)[C@H](CCCNC(=N)N)NC(=O)[C@H](CC(C)C)NC(=O)[C@H](Cc2ccccc2)NC(=O)CNC(=O)CNC(=O)[C@H](Cc2ccc(O)cc2)NC(=O)[C@@H]2CSSC[C@H](NC(=O)[C@H](CCCCN)NC(=O)[C@H](CC(C)C)NC(=O)[C@H](CCCCN)NC(=O)[C@@H]3CCCN3C(=O)[C@H](CCCNC(=N)N)NC1=O)C(=O)N[C@@H](Cc1ccccc1)C(=O)N1CCC[C@H]1C(=O)N[C@@H](CC(=O)O)C(=O)NCC(=O)N[C@@H](CCCNC(=N)N)C(=O)N2` [helianorphin-1], for which, at mouse KOR [2], the “KOR activation in cAMP assay (in words)” value is given as “fully activated the receptor” and the Emax was determined as 106 ± 8.4%.

`CC[C@H](C)[C@@H]1NC(=O)[C@H](CCCNC(=N)N)NC(=O)[C@H](CCCNC(=N)N)NC(=O)[C@H](CC(C)C)NC(=O)[C@H](Cc2ccccc2)NC(=O)CNC(=O)CNC(=O)[C@H](Cc2ccc(O)cc2)NC(=O)[C@@H]2CSSC[C@H](NC(=O)[C@H](CCCCN)NC(=O)[C@H](CC(C)C)NC(=O)[C@H](CCCCN)NC(=O)[C@@H]3CCCN3C(=O)[C@H](CCCNC(=N)N)NC1=O)C(=O)N[C@@H]([C@@H](C)O)C(=O)N[C@@H](CCCCN)C(=O)N[C@@H](CO)C(=O)N[C@@H]([C@@H](C)CC)C(=O)N1CCC[C@H]1C(=O)N1CCC[C@H]1C(=O)N[C@@H]([C@@H](C)CC)C(=O)N2` [helianorphin-2] (cyclo(CTKSIPPICYGGFLRRIRPKLK); disulfide 1-9): on mouse KOR [2], the “KOR activation in cAMP assay (in words)” value was “fully activated the receptor” and the Emax was 102 ± 10%.

Turning to `CC[C@H](C)[C@@H]1NC(=O)[C@H](CCCNC(=N)N)NC(=O)[C@H](CCCNC(=N)N)NC(=O)[C@H](CC(C)C)NC(=O)[C@H](Cc2ccccc2)NC(=O)CNC(=O)CNC(=O)[C@H](Cc2ccc(O)cc2)NC(=O)[C@@H]2CSSC[C@H](NC1=O)C(=O)N[C@@H](Cc1ccccc1)C(=O)N1CCC[C@H]1C(=O)N[C@@H](CC(=O)O)C(=O)NCC(=O)N[C@@H](CCCNC(=N)N)C(=O)N2` [helianorphin-3], the Emax at mouse KOR [2] turned out to be 85.1 ± 1.8%.

For `CC[C@H](C)[C@@H]1NC(=O)[C@H](CCCNC(=N)N)NC(=O)[C@H](CCCNC(=N)N)NC(=O)[C@H](CC(C)C)NC(=O)[C@H](Cc2ccccc2)NC(=O)CNC(=O)CNC(=O)[C@H](Cc2ccc(O)cc2)NC(=O)[C@@H]2CSSC[C@H](NC1=O)C(=O)N[C@@H]([C@@H](C)O)C(=O)N[C@@H](CCCCN)C(=O)N[C@@H](CO)C(=O)N[C@@H]([C@@H](C)CC)C(=O)N1CCC[C@H]1C(=O)N1CCC[C@H]1C(=O)N[C@@H]([C@@H](C)CC)C(=O)N2` [helianorphin-4] (cyclo(CTKSIPPICYGGFLRRI); disulfide 1-9), the Emax at mouse KOR [2] stood at 87.8 ± 33%.

What is called Ki is a measure of affinity in units of concentration, obtained from inhibition or displacement. Consider `CC[C@H](C)[C@@H]1NC(=O)[C@H](CCCNC(=N)N)NC(=O)[C@H](CC(C)C)NC(=O)[C@H](Cc2ccccc2)NC(=O)CNC(=O)CNC(=O)[C@H](Cc2ccc(O)cc2)NC(=O)[C@@H]2CSSC[C@H](NC1=O)C(=O)N[C@@H](Cc1ccccc1)C(=O)N1CCC[C@H]1C(=O)N[C@@H](CC(=O)O)C(=O)NCC(=O)N[C@@H](CCCNC(=N)N)C(=O)N2` [helianorphin-5] (cyclo(CFPDGRCYGGFLRI); disulfide 1-7), for which the Ki at mouse KOR [3] is > 10 µM.

As to `CC(C)C[C@@H]1NC(=O)[C@H](Cc2ccccc2)NC(=O)CNC(=O)CNC(=O)[C@H](Cc2ccc(O)cc2)NC(=O)[C@H]([C@@H](C)O)NC(=O)[C@@H]2CSSC[C@H](NC(=O)[C@H](CCCNC(=N)N)NC1=O)C(=O)N[C@@H](Cc1ccccc1)C(=O)N1CCC[C@H]1C(=O)N[C@@H](CC(=O)O)C(=O)NCC(=O)N[C@@H](CCCNC(=N)N)C(=O)N2` [helianorphin-6] (cyclo(CFPDGRCTYGGFLR); disulfide 1-7), the Ki at mouse KOR [3] was > 10 µM.

Consider `CC[C@H](C)[C@@H]1NC(=O)[C@@H]2CCCN2C(=O)[C@@H]2CCCN2C(=O)[C@H]([C@@H](C)CC)NC(=O)[C@H](CO)NC(=O)[C@H](C)NC(=O)[C@H]([C@@H](C)O)NC(=O)[C@@H]2CSSC[C@H](NC1=O)C(=O)N[C@@H](Cc1ccc(O)cc1)C(=O)NCC(=O)NCC(=O)N[C@@H](Cc1ccccc1)C(=O)N[C@@H](CC(C)C)C(=O)N[C@@H](CCCNC(=N)N)C(=O)N2` [helianorphin-7] (cyclo(ASIPPICYGGFLRCT); disulfide 7-14), for which the inhibitory constant (Ki) at mouse KOR [3] was > 10 µM.

Regarding `CC[C@H](C)[C@@H]1NC(=O)[C@@H]2CCCN2C(=O)[C@@H](CCCCN)NC(=O)[C@@H](CC(C)C)NC(=O)[C@@H](Cc2ccccc2)NC(=O)[C@@H](Cc2ccccc2)NC(=O)[C@H]([C@@H](C)O)NC(=O)[C@@H]2CSSC[C@H](NC1=O)C(=O)N[C@@H](Cc1ccccc1)C(=O)N1CCC[C@H]1C(=O)N[C@@H](CC(=O)O)C(=O)NCC(=O)N[C@@H](CCCNC(=N)N)C(=O)N2` [helianorphin-10] (cyclo(CFPDGRCT[dF][dF][dL][dK]PI); disulfide 1-7), at mouse KOR [3], the Ki is > 10 µM.

In the case of `CCCC[C@H]1NC(=O)[C@@H](Cc2ccccc2)NC(=O)[C@@H](Cc2ccccc2)NC(=O)[C@H]([C@@H](C)O)NC(=O)[C@@H]2CSSC[C@H](NC(=O)[C@H]([C@@H](C)CC)NC(=O)[C@@H]3CCCN3C(=O)[C@@H](CCCNC(=N)N)NC1=O)C(=O)N[C@@H](Cc1ccccc1)C(=O)N1CCC[C@H]1C(=O)N[C@@H](CC(=O)O)C(=O)NCC(=O)N[C@@H](CCCNC(=N)N)C(=O)N2` [helianorphin-12], at mouse KOR [2], the “KOR activation in cAMP assay (in words)” value is “fully activates the KOR” and the Emax worked out at 117 ± 12%.

In the case of `CC[C@H](C)[C@@H]1NC(=O)[C@@H]2CSSC[C@H](NC(=O)[C@H](CCCCN)NC(=O)[C@H](CC(C)C)NC(=O)[C@H](CCCCN)NC(=O)[C@@H]3CCCN3C(=O)[C@H](CCCNC(=N)N)NC1=O)C(=O)N[C@@H](Cc1ccc(O)cc1)C(=O)NCC(=O)NCC(=O)N[C@@H](Cc1ccccc1)C(=O)N[C@@H](CC(C)C)C(=O)N[C@@H](CCCNC(=N)N)C(=O)N[C@@H](CCCNC(=N)N)C(=O)N2` [helianorphin-19] (cyclo(CIRPKLKCYGGFLRR); disulfide 1-8), the Emax on mouse KOR [2] is 108 ± 11%. The “β-arrestin-2 recruitment Emax” value in data set [4] was 41.1 ± 3.7% and 41%. The “rotarod performance (latency to fall)” value in data set [5] is recorded as “did not impair rotarod performance”.

For `Oc1ccc2c3c1O[C@H]1c4[nH]c5c(c4C[C@@]4(O)[C@@H](C2)N(CC2CC2)CC[C@]314)C[C@@]1(O)[C@H]2Cc3ccc(O)c4c3[C@@]1(CCN2CC1CC1)[C@H]5O4` [nor-BNI, norbinaltorphimine], the “effect on helianorphin-19-induced inhibition of colonic nociceptor mechanosensitivity” value in data set [6] (0.1 μM nor-BNI plus 1 μM helianorphin-19) is on record as “prevented helianorphin-19-induced inhibition of colonic nociceptor mechanosensitivity; also recorded: did block helianorphin-19 (1 μM)-induced inhibition of colonic nociceptor action potential firing”. For the same molecule, the “colonic nociceptor mechanosensitivity, antagonist alone” value in data set [6] (0.1 μM, 5 min pre-incubation) was “did not affect CVH colonic nociceptor responses to mechanical stimuli; also recorded: did not affect nociceptor mechanosensitivity”.
